29 molecules from patent US12060347B2 (BRISTOL-MYERS SQUIBB COMPANY, priority 2016, dated 2024) can be followed below.

A word on the IC50: it is the concentration that gives 50% inhibition.

This assay addresses T1, human PAR4 (Homo sapiens, UniProt Q96RI0).
T1 construct: expressed in transfected cells; host or cells: HEK293 PAR4 Clone 1.2A (BMS Arctic ID 383940)
T1 sequence (Q96RI0 18-385): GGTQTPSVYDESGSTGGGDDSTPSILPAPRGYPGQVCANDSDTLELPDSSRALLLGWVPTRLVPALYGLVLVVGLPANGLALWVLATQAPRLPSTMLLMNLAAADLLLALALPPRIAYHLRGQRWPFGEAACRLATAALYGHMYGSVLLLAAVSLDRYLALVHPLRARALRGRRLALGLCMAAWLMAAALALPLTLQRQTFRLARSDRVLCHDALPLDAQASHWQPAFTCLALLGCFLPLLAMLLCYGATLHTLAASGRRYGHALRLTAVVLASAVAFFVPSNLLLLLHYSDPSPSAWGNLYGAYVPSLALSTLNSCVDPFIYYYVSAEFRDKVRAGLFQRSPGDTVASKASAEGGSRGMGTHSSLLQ
Kind of assay: PAR4 FLIPR assay: antagonism of agonist-peptide-induced calcium mobilization in PAR4-expressing HEK293 cells. The class given is cell-based. The settings on record: H-Ala-Phe(4-F)-[…]NH2-induced intracellular calcium mobilization, 11-point curves. (In general: A change in cytosolic calcium serves as a functional read-out for many receptors and channels.)

As to `COc1cnc2c(-c3nc4cc(F)c(OC[C@@H](C)OC(=O)Nc5ccc(C)nc5)cc4s3)cc(C)cc2n1` [Example 592, (R)-1-((5-fluoro-2-(2-methoxy-7-methylquinoxalin-5-yl)benzo[d]thiazol-6-yl)oxy)propan-2-yl (6-methylpyridin-3-yl)carbamate], the 50% inhibitory concentration (IC50) was found to be 0.7 nM.

As for `COCc1cnc2c(-c3nc4c(C)c(C)c(OCC(=O)OC)cc4s3)cc(C)cc2n1` [Example 296, methyl 2-((2-(2-(methoxymethyl)-7-methylquinoxalin-5-yl)-4,5-dimethylbenzo[d]thiazol-6-yl)oxy)acetate], the IC50 is 1.2 nM.

On to `COc1cnc2c(-c3nc4cc(F)c(O[C@@H](C)[C@@H](C)OC(=O)Nc5cnc(C(=O)NCCC(C)(C)O)nc5)cc4s3)cc(C)cc2n1` [Example 458, (2R,3S)-3-((5-fluoro-2-(2-methoxy-7-methylquinoxalin-5-yl)benzo[d]thiazol-6-yl)oxy)butan-2-yl (2-((3-hydroxy-3-methylbutyl)carbamoyl)pyrimidin-5-yl)carbamate], for which the IC50 stood at 0.5 nM.

For `COc1cnc2c(-c3nc4ccc(OCCOC(=O)Nc5cccc(C#N)c5)cc4s3)cc(C)cc2n1` [Example 118, 2-((2-(2-methoxy-7-methylquinoxalin-5-yl)benzo[d]thiazol-6-yl)oxy)ethyl (3-cyanophenyl)carbamate], the IC50 stood at 2.2 nM.

`COc1cnc2c(-c3nc4cc(F)c(O[C@@H](C)[C@@H](C)OC(=O)Nc5cnc(C)nc5)nc4s3)cc(C)cc2n1` [Example 731, (2R,3S)-3-((6-fluoro-2-(2-methoxy-7-methylquinoxalin-5-yl)thiazolo[5,4-b]pyridin-5-yl)oxy)butan-2-yl (2-methylpyrimidin-5-yl)carbamate]: the IC50 amounted to 0.9 nM.

As to `COCc1cnc2c(-c3nc4c(C)c(F)c(OCCOC(=O)Nc5ccc(F)nc5)cc4s3)cc(C)cc2n1` [Example 303, 2-((5-fluoro-2-(2-(methoxymethyl)-7-methylquinoxalin-5-yl)-4-methylbenzo[d]thiazol-6-yl)oxy)ethyl (6-fluoropyridin-3-yl) carbamate], the 50% inhibitory concentration (IC50) was found to be 0.9 nM.

On to `COc1cnc2c(-c3nc4c(Cl)c(F)c(OC)cc4s3)cc(CO)c(F)c2n1` [Example 224, (8-(4-chloro-5-fluoro-6-methoxybenzo[d]thiazol-2-yl)-5-fluoro-3-methoxyquinoxalin-6-yl)methanol], for which the IC50 was 15 nM.

As for `COc1cnc2c(-c3nc4c(C)cc(OCCOC(=O)Nc5ccc(C#N)nc5)cc4s3)cc(C)cc2n1` [Example 117, 2-((2-(2-methoxy-7-methylquinoxalin-5-yl)-4-methylbenzo[d]thiazol-6-yl)oxy)ethyl (6-cyanopyridin-3-yl)carbamate], the IC50 is 0.5 nM.

Take `COc1cnc2c(-c3nc4cc(F)c(OC[C@@H](C)OC(=O)Nc5cnc(OC)nc5)nc4s3)cc(C)cc2n1` [Example 679, (R)-1-((6-fluoro-2-(2-methoxy-7-methylquinoxalin-5-yl)thiazolo[5,4-b]pyridin-5-yl)oxy) propan-2-yl (2-methoxypyrimidin-5-yl)carbamate]: the IC50 stood at 2.5 nM.

Turning to `COc1cnc2c(-c3nc4cc(F)c(O[C@@H](C)[C@@H](C)OC(=O)Nc5ccc(C(=O)N6CCOCC6)nc5)cc4s3)cc(C)cc2n1` [Example 426, (2R,3S)-3-((5-fluoro-2-(2-methoxy-7-methylquinoxalin-5-yl)benzo[d]thiazol-6-yl)oxy)butan-2-yl (6-(morpholine-4-carbonyl)pyridin-3-yl)carbamate], the IC50 stood at 5.4 nM.

Regarding `COCc1cnc2c(-c3nc4c(C)cc(OCCNS(=O)(=O)c5ccc(F)cc5)nc4s3)cc(C)cc2n1` [Example 193, 4-fluoro-N-(2-((2-(2-(methoxymethyl)-7-methylquinoxalin-5-yl)-7-methylthiazolo[5,4-b]pyridin-5-yl)oxy)ethyl)benzenesulfonamide], the IC50 is 1.2 nM.

For the molecule `COc1cnc2c(-c3nc4cc(F)c(O[C@@H](C)[C@@H](C)OC(=O)Nc5cncc(F)c5)cc4s3)cc(Cl)cc2c1` [Example 782, (2R,3S)-3-((2-(6-chloro-3-methoxyquinolin-8-yl)-5-fluorobenzo[d]thiazol-6-yl)oxy)butan-2-yl (5-fluoropyridin-3-yl)carbamate], the 50% inhibitory concentration (IC50) is 2.7 nM.

On to `COc1cnc2c(-c3cc4ccccc4o3)cc(C)cc2c1` [Example 177, 8-(benzofuran-2-yl)-3-methoxy-6-methylquinoline], for which the IC50 was 190 nM.

Take `COCc1ccc2nc(-c3cc(C)cc4nc(COC)cnc34)sc2c1` [Example 309, 6-(methoxymethyl)-2-(2-(methoxymethyl)-7-methylquinoxalin-5-yl)benzo[d]thiazole]: the IC50 was 3.3 nM.

As to `COCc1cnc2c(-c3nc4c(CO)cc(OC)nc4s3)cc(C)cc2n1` [Example 192, (5-methoxy-2-(2-(methoxymethyl)-7-methylquinoxalin-5-yl)thiazolo[5,4-b]pyridin-7-yl) methanol], the IC50 worked out at 2.8 nM.

`COc1cnc2c(-c3nc4c(C)cc(OCCOC(=O)Nc5ccncc5)cc4s3)cc(C)cc2n1` [Example 113, 2-(2-(2-methoxy-7-methylquinoxalin-5-yl)-4-methylbenzo[d]thiazol-6-yloxy)ethyl pyridin-4-ylcarbamate]: the IC50 was found to be 3 nM.

With `Cc1cc(-c2nc3c(C)cc(OCCNS(=O)(=O)c4ccc(F)cc4)cc3s2)c2ncc(OC3CC3)nc2c1` [Example 33, N-(2-((2-(2-cyclopropoxy-7-methylquinoxalin-5-yl)-4-methylbenzo[d]thiazol-6-yl)oxy)ethyl)-4-fluorobenzenesulfonamide], the IC50 came to 120 nM.

`COCc1cnc2c(-c3nc4c(Cl)cc(OCCNS(C)(=O)=O)cc4s3)cc(C)cc2n1` [Example 98, N-(2-(4-chloro-2-(2-(methoxymethyl)-7-methylquinoxalin-5-yl)benzo[d]thiazol-6-yloxy)ethyl)methanesulfonamide]: the IC50 was 0.3 nM.

Consider `CCOc1cnc2c(-c3nc4cc(F)c(O[C@@H](C)[C@@H](C)OC(=O)Nc5ccc(CCO)nc5)cc4s3)cc(C)cc2n1` [Example 526, (2R,3S)-3-((2-(2-ethoxy-7-methylquinoxalin-5-yl)-5-fluorobenzo[d]thiazol-6-yl)oxy)butan-2-yl (6-(2-hydroxyethyl)pyridin-3-yl)carbamate], for which the 50% inhibitory concentration (IC50) was determined as 2 nM.

With `COc1cc(C(O)C2(C(F)(F)F)CCC2)c2nc(-c3cc(C)cc4nc(OC)cnc34)sc2c1` (single isomer, unassigned) [Example 664], the IC50 turned out to be 0.9 nM.

As for `COc1cnc2c(-c3nc4c(C)cc(OC[C@@H](C)OC(=O)Nc5cnc(C)nc5)nc4s3)cc(C)cc2n1` [Example 737, (R)-1-((2-(2-methoxy-7-methylquinoxalin-5-yl)-7-methylthiazolo[5,4-b]pyridin-5-yl)oxy) propan-2-yl (2-methylpyrimidin-5-yl)carbamate], the IC50 came to 8.1 nM.

As to `[2H]C([2H])(O)c1ncc(NC(=O)O[C@H](C)[C@H](C)Oc2cc3sc(-c4cc(C)cc5nc(OC)cnc45)nc3cc2F)cn1` [Example 528, (2R,3S)-3-((5-fluoro-2-(2-methoxy-7-methylquinoxalin-5-yl)benzo[d]thiazol-6-yl)oxy)butan-2-yl (2-(hydroxymethyl)pyrimidin-5-yl)carbamate], the IC50 was found to be 5 nM.

As to `COc1cnc2c(-c3nc4cc(F)c(O[C@@H](C)[C@@H](C)OC(=O)Nc5cnc(C)nc5)cc4s3)cc(CO)cc2c1` [Example 773], the IC50 stood at 11 nM.

`CC[C@H](COc1cc2sc(-c3cc(C)cc4nc(OC)cnc34)nc2cc1F)OC(=O)Nc1cccnc1` [Example 517, (R)-1-((5-fluoro-2-(2-methoxy-7-methylquinoxalin-5-yl)benzo[d]thiazol-6-yl)oxy)butan-2-yl pyridin-3-ylcarbamate]: the IC50 is 1.1 nM.

Regarding `COc1cnc2c(-c3nc4c(C)cc(OCCNS(=O)(=O)c5ccc(F)cc5)cc4s3)cc(C#N)cc2n1` [Example 231, N-(2-((2-(7-cyano-2-methoxyquinoxalin-5-yl)-4-methylbenzo[d]thiazol-6-yl)oxy)ethyl)-4-fluorobenzenesulfonamide], the IC50 was found to be 1 nM.

As to `Cc1cc(-c2nc3ccc(OCCNC(=O)OC4CCOC4)cc3s2)c2ncc(OC(F)F)nc2c1` (centres unmarked) [Example 16, tetrahydrofuran-3-yl (2-((2-(2-(difluoromethoxy)-7-methylquinoxalin-5-yl)benzo[d]thiazol-6-yl)oxy)ethyl)carbamate], the IC50 worked out at 80 nM.

As to `COCC(COc1cc2sc(-c3cc(C)cc4nc(OC)cnc34)nc2cc1F)OC(=O)Nc1cccnc1` (racemic) [Example 516, 1-((5-fluoro-2-(2-methoxy-7-methylquinoxalin-5-yl)benzo[d]thiazol-6-yl)oxy)-3-methoxypropan-2-yl pyridin-3-ylcarbamate (rac)], the half-inhibitory concentration (IC50) was found to be 2 nM.

`COc1cc(C)c2nc(-c3cc(C#N)cc4nc(OC)cnc34)sc2c1` [Example 211, 3-methoxy-8-(6-methoxy-4-methylbenzo[d]thiazol-2-yl)quinoxaline-6-carbonitrile]: the IC50 was 21 nM.

With `COc1cnc2c(-c3nc4c(C)c(F)c(OCCOC(=O)Nc5ccc(F)nc5)cc4s3)cc(C)cc2n1` [Example 302, 2-((5-fluoro-2-(2-methoxy-7-methylquinoxalin-5-yl)-4-methylbenzo[d]thiazol-6-yl)oxy)ethyl (6-fluoropyridin-3-yl)carbamate], the IC50 is 3.2 nM.
